The text below walks through data of publication PMC3461044, “Probing Protein Sequences as Sources for Encrypted Antimicrobial Peptides” (PLoS ONE, 2012).

A short description of data set [1]: Far UV circular dichroism of peptides in buffer (MRE, α-helix percentage). It is filed as physicochemical. The settings on record: for [q]208 nm Buffer (Greenfield 69): Mean Residue Ellipticity at 208 nm; for [q]208 nm Buffer (Greenfield 69) / [q]222 nm Buffer (Chen 74): peptide in buffer, far UV CD; for [q]222 nm Buffer (Chen 74): Mean Residue Ellipticity at 222 nm; for % Helicity (Buffer) (Greenfield 69): from [q]208 nm, methodology of Greenfield et al. 1969; for % Helicity (Buffer) (Chen 74): from [q]222 nm, methodology of Chen et al. 1974. As for the experimental part: Far UV CD spectra were acquired for peptides at 20 µM in buffer and in the presence of DMPC or 2∶1 DMPC:DMPG LUVs at 1 mol% peptide/phospholipids. Peptides presented different degrees of secondary structures upon LUVs addition. […] Following the addition of LUVs, some peptides changed conformation resulting in spectral features characteristic of α-helical structures.
Experiments were conducted on a Jasco-J810 spectropolarimeter (Jasco International Co., Japan). Spectra were acquired at room temperature from 194 to 260 nm as an average of 4 readings using a 0.1 cm path length cell, data pitch of 0.2 nm and a response time of 0.5 s. Data Scans of buffer and 2 mM DMPC and 2∶1 DMPC:DMPG LUVs solutions were acquired and subtracted from each peptide data. Peptides were scanned at a concentration of 20 µM in buffer and then 100 fold excess of DMPC and 2∶1 DMPC:DMPG LUVs were added, resulting in a molar ratio of 0.01 peptide/phospholipids. […] Proximity to equilibrium was verified by scanning peptides added with twice the LUVs concentration, approximately 4 mM.
Background: CD spectra are sensitive to the conformation of chiral molecules.

Data set [2] concerns Pseudomonas aeruginosa ATCC 27853. The format is cell-based. Particulars: for MIC, Pseudomonas aeruginosa: Mueller-Hinton broth, serial 2-fold dilutions, inoculum ~10^5 CFU/mL, highest 256 µg/mL, 12 h, OD600, NDA = Non-detectable activity; for 1/(log(MICs (mM)), Pseudomonas aeruginosa): from MIC, 0 where no detectable activity. As for the experimental part:
(§1) MICs were determined using the M7-A6 protocol from the Clinical Laboratory Standards Institute (CLSI). Escherichia coli ATCC 25922, Pseudomonas aeruginosa ATCC 27853, Staphylococcus aureus ATCC 29313 were streaked in Mueller-Hinton agar, grown overnight at 37°C, transferred to Mueller-Hinton broth and incubated until readings at 600 nm reached the equivalent of 0.5 in the MacFarland scale. […]. Inhibitory assays for X. axonopodis pv. glycines were conducted by the same methodology with longer incubation time (48 h).

The subject of data set [3] is Escherichia coli ATCC 25922. It is filed as cell-based. Particulars: for MIC, Escherichia coli: Mueller-Hinton broth, serial 2-fold dilutions, inoculum ~10^5 CFU/mL, highest 256 µg/mL, 12 h, OD600, NDA = Non-detectable activity; for 1/(log(MICs (mM)), Escherichia coli): from MIC, 0 where no detectable activity. As for the experimental part: as §1
The subject of data set [4] is Staphylococcus aureus ATCC 29313. The format is cell-based. The settings on record: for MIC, Staphylococcus aureus: Mueller-Hinton broth, serial 2-fold dilutions, inoculum ~10^5 CFU/mL, highest 256 µg/mL, 12 h, OD600, NDA = Non-detectable activity; for 1/(log(MICs (mM)), Staphylococcus aureus): from MIC, 0 where no detectable activity. The protocol: as §1
The test system of data set [5] is Xanthomonas axonopodis pv. glycines. Particulars: for 1/(log(MICs (mM)), Xanthomonas axonopodis pv. glycines): from MIC, 0 where no detectable activity; for MIC, Xanthomonas axonopodis pv. glycines: serial 2-fold dilutions, 96-well, inoculum ~10^5 CFU/mL, highest 256 µg/mL, 48 h, OD600, NDA = Non-detectable activity. The protocol:
MICs were determined using the M7-A6 protocol from the Clinical Laboratory Standards Institute (CLSI). […] Initial bacterium inoculum of ∼10^5 colony forming units/mL were transferred, along with serial 2-fold dilutions of each peptide to 96-well plates and incubated for 12 h. […] For each peptide concentration, optical density (OD600) readings were subtracted from that of the growth medium and divided by the positive control (100% bacterial growth). Inhibitory assays for X. axonopodis pv. glycines were conducted by the same methodology with longer incubation time (48 h).

No end group written: not given here. Where only a bound is given, the exact number is not on record here.

Consider KAGLQFPVGRIARFLK [B4FGE3(22–37)], for which, in data set [1], the “[q]208 nm Buffer (Greenfield 69)” value is reported as -5213, the “[q]222 nm Buffer (Chen 74)” value is listed as -1506, the “% Helicity (Buffer) (Greenfield 69)” value is 4.2% and the “% Helicity (Buffer) (Chen 74)” value amounted to 4.3%. Also, in data set [2], the “MIC, Pseudomonas aeruginosa” value was “NDA” and the “1/(log(MICs (mM)), Pseudomonas aeruginosa)” value was 0. For the same substance, in data set [3], the “MIC, Escherichia coli” value is “NDA” and the “1/(log(MICs (mM)), Escherichia coli)” value worked out at 0. In data set [4], the “MIC, Staphylococcus aureus” value is given as “NDA” and the “1/(log(MICs (mM)), Staphylococcus aureus)” value was determined as 0. In data set [5], the “1/(log(MICs (mM)), Xanthomonas axonopodis pv. glycines)” value is on record as 0 and the “MIC, Xanthomonas axonopodis pv. glycines” value was “NDA”.
As to “GLKDMIKNLAKEAAVKLAGAVINKFSPQPQ [Nattererin-1, reference compound]”, in data set [5], the “MIC, Xanthomonas axonopodis pv. glycines” value is on record as less than 1 µM.
Same read-out and setting: with “AAAAAAAIKMLMDLVNERIMALNKKAKK [Q6TV81(25–52)]” the figure was less than 1 µM.
On the same count and under the same terms, with “GKFHQIKKMFLSVGVKVTSLKRIQFGDF [A5LDU0(184–211)]” the figure was 10 µM; with “GLWSTIKQKGKEAAIAAAKAAGQAALGAL [DS 01, reference compound]”, less than 1 µM.
Regarding FKALRALRLEDLRIPTSYIK [A3KLW0(117–136)], in data set [1], the “[q]208 nm Buffer (Greenfield 69)” value was -11457, the “[q]222 nm Buffer (Chen 74)” value is given as -3442, the “% Helicity (Buffer) (Greenfield 69)” value was determined as 25.7% and the “% Helicity (Buffer) (Chen 74)” value worked out at 9.8%. For the same substance, in data set [2], the “MIC, Pseudomonas aeruginosa” value is recorded as “NDA” and the “1/(log(MICs (mM)), Pseudomonas aeruginosa)” value was found to be 0. In data set [3], the “MIC, Escherichia coli” value was “NDA” and the “1/(log(MICs (mM)), Escherichia coli)” value came out at 0. In data set [4], the “MIC, Staphylococcus aureus” value is “NDA” and the “1/(log(MICs (mM)), Staphylococcus aureus)” value was 0. In data set [5], the “1/(log(MICs (mM)), Xanthomonas axonopodis pv. glycines)” value is 0 and the “MIC, Xanthomonas axonopodis pv. glycines” value is “NDA”.
Take “FLSLIPHAINAVSTLVHHF [PS -2, reference compound]”: the “MIC, Xanthomonas axonopodis pv. glycines” value in data set [5] was 121 µM.
On the same count and under the same terms, with “GIGDILKNLAKAAGKAALHAVGESL [HSP-4, reference compound]” the figure was less than 2 µM.
Same read-out and setting: with “GIGKFLHSAKKFGKAFVGEIMNS-NH2 [Magainin-2 amide, reference compound]” the figure was 13 µM.
With “VWTTAMEKSSAANFSMSRNQRRSSLHSL [gb|AAD22970.1|(120–148)]”, in data set [2], the “MIC, Pseudomonas aeruginosa” value is reported as “NDA” and the “1/(log(MICs (mM)), Pseudomonas aeruginosa)” value came to 0. Besides, in data set [3], the “MIC, Escherichia coli” value is listed as “NDA” and the “1/(log(MICs (mM)), Escherichia coli)” value is given as 0. In data set [4], the “MIC, Staphylococcus aureus” value is given as “NDA” and the “1/(log(MICs (mM)), Staphylococcus aureus)” value is given as 0. Also, in data set [5], the “1/(log(MICs (mM)), Xanthomonas axonopodis pv. glycines)” value was found to be 0 and the “MIC, Xanthomonas axonopodis pv. glycines” value is “NDA”.
Turning to “KLKKLLAGQKDGLLGQIAAMSDLYTKK [P94692(929–955)]”, in data set [1], the “[q]208 nm Buffer (Greenfield 69)” value was -6507, the “[q]222 nm Buffer (Chen 74)” value is recorded as -2066, the “% Helicity (Buffer) (Greenfield 69)” value came to 8.6% and the “% Helicity (Buffer) (Chen 74)” value was found to be 5.9%. In addition, in data set [2], the “MIC, Pseudomonas aeruginosa” value is reported as “NDA” and the “1/(log(MICs (mM)), Pseudomonas aeruginosa)” value is on record as 0. Further, in data set [3], the “MIC, Escherichia coli” value is on record as “NDA” and the “1/(log(MICs (mM)), Escherichia coli)” value turned out to be 0. Besides, in data set [4], the “MIC, Staphylococcus aureus” value is recorded as “NDA” and the “1/(log(MICs (mM)), Staphylococcus aureus)” value stood at 0. Also, in data set [5], the “1/(log(MICs (mM)), Xanthomonas axonopodis pv. glycines)” value was 0 and the “MIC, Xanthomonas axonopodis pv. glycines” value was “NDA”.
With “GLWQIFSSKEEGKDNSQQKSKGDQAKEL [gb|ACU24018.1|(73–101)]”, in data set [1], the “[q]208 nm Buffer (Greenfield 69)” value is listed as -7591, the “[q]222 nm Buffer (Chen 74)” value is -2129, the “% Helicity (Buffer) (Greenfield 69)” value came out at 12.4% and the “% Helicity (Buffer) (Chen 74)” value came out at 6%. Besides, in data set [2], the “MIC, Pseudomonas aeruginosa” value is given as “NDA” and the “1/(log(MICs (mM)), Pseudomonas aeruginosa)” value is 0. Further, in data set [3], the “MIC, Escherichia coli” value was “NDA” and the “1/(log(MICs (mM)), Escherichia coli)” value is given as 0. For the same substance, in data set [4], the “MIC, Staphylococcus aureus” value is listed as “NDA” and the “1/(log(MICs (mM)), Staphylococcus aureus)” value is 0. In data set [5], the “1/(log(MICs (mM)), Xanthomonas axonopodis pv. glycines)” value came out at 0 and the “MIC, Xanthomonas axonopodis pv. glycines” value is on record as “NDA”.
Turning to “FINKAGKLQSQLRTTVVAAAAFLDAFQKVA [O43312(33–62)]”, the “MIC, Xanthomonas axonopodis pv. glycines” value in data set [5] worked out at 80 µM.
For the substance “GHRGALKDWVQAAGGAVAAFDFTTKG [Q8RW88(70–95)]”, in data set [1], the “[q]208 nm Buffer (Greenfield 69)” value is -4005, the “[q]222 nm Buffer (Chen 74)” value is -6062, the “% Helicity (Buffer) (Greenfield 69)” value came to 0.0168% and the “% Helicity (Buffer) (Chen 74)” value came out at 17.2%. Also, in data set [2], the “MIC, Pseudomonas aeruginosa” value is on record as “NDA” and the “1/(log(MICs (mM)), Pseudomonas aeruginosa)” value was 0. In addition, in data set [3], the “MIC, Escherichia coli” value is “NDA” and the “1/(log(MICs (mM)), Escherichia coli)” value is on record as 0. For the same substance, in data set [4], the “MIC, Staphylococcus aureus” value is “NDA” and the “1/(log(MICs (mM)), Staphylococcus aureus)” value was found to be 0. For the same substance, in data set [5], the “1/(log(MICs (mM)), Xanthomonas axonopodis pv. glycines)” value is listed as 0 and the “MIC, Xanthomonas axonopodis pv. glycines” value is listed as “NDA”.
Regarding “FVTNSKRLAEGIEKGVGNSILIKVN [Q8KG25(327–351)]”, in data set [1], the “[q]208 nm Buffer (Greenfield 69)” value is reported as -7856, the “[q]222 nm Buffer (Chen 74)” value is -6669, the “% Helicity (Buffer) (Greenfield 69)” value was determined as 13.3% and the “% Helicity (Buffer) (Chen 74)” value was 18.9%. Besides, in data set [2], the “MIC, Pseudomonas aeruginosa” value is “NDA” and the “1/(log(MICs (mM)), Pseudomonas aeruginosa)” value worked out at 0. For the same substance, in data set [3], the “MIC, Escherichia coli” value was “NDA” and the “1/(log(MICs (mM)), Escherichia coli)” value was 0. Further, in data set [4], the “MIC, Staphylococcus aureus” value is recorded as “NDA” and the “1/(log(MICs (mM)), Staphylococcus aureus)” value came out at 0. For the same substance, in data set [5], the “1/(log(MICs (mM)), Xanthomonas axonopodis pv. glycines)” value worked out at 0 and the “MIC, Xanthomonas axonopodis pv. glycines” value was “NDA”.
For LAKRRVLTLLRQLRRVSPSS [Q7YRI0(9–28)], the “MIC, Xanthomonas axonopodis pv. glycines” value in data set [5] is reported as less than 2 µM.
With “Gm0026x00785(77–103) (HKMDLHWYLRTLEEVVIRALQRFQFR)”, in data set [5] (in vitro growth), the “concentration that inhibited the in vitro growth of X. axonopodis pv. glycines” value amounted to 10 µM.
For “GLNTLKKVIQGLHEVIKLVNNHA [Pseudin B, reference compound]”, the “MIC, Xanthomonas axonopodis pv. glycines” value in data set [5] is given as less than 2 µM.
Consider “GVLDILKGAAKDLAGHVATKVINKI [Syphaxin, reference compound]”, for which the “MIC, Xanthomonas axonopodis pv. glycines” value in data set [5] is 25 µM.
On to “LVQRFHAYLHKFREAFMNVGAAAAVEGTKAA [A4HW34(187–217)]”, for which the “MIC, Xanthomonas axonopodis pv. glycines” value in data set [5] is 37 µM.
“LRPAILVRVKGKGL [Hyposin HA-6, reference compound]”: the “MIC, Xanthomonas axonopodis pv. glycines” value in data set [5] is given as 42 µM.
Consider “FKQFHFKDFNRAFGFMTRVALQAEKL [P61458(35–60)]”, for which the “MIC, Xanthomonas axonopodis pv. glycines” value in data set [5] is 40 µM.
Same read-out and setting: the value for “FFFDTLKNLAGKVIGALT [Phes, reference compound]” was 33 µM.
